Experiments:
[1] = Potentiometric titration: stability constants of the complexes; type: physicochemical
Protocol: Potentiometric titrations were performed in a 30-mL thermostated (298.15 ± 0.10 K) cell using the Cerko Lab System microtitration unit fitted with a 5-mL Hamilton’s syringe, a pH combined electrode (Schott–BlueLine 16 pH type) and a self-made measuring cell equipped with a magnetic stirrer. The temperature was controlled using the Lauda E100 circulation thermostat. In aqueous solutions, the electrode was calibrated according to IUPAC recommendations. In binary systems (10–50 % v/v DMSO:H2O), the electrode calibration was performed by the Gran’s method using the GLEE program. For this purpose, the HClO4 solution was titrated with tetrabutylammonium hydroxide (Bu4NOH) solution both at the same mole fraction of organic solvent (10–50 (v/v%) DMSO). The syringe was calibrated by a weight method. The double distilled water of conductivity approximately 0.18 μS/cm was used throughout for the preparation of aqueous solutions. Other reagents used in the experiments were purchased from Sigma-Aldrich. They were as follows: VOSO4 (≥99.99 % trace metals basis), Co(NO3)2·6H2O (ACS reagent, ≥99 %), Ni(NO3)2·6H2O (99.999 %) and 2,2′-oxydiacetic acid (H2ODA, 98 %). All the solutions were prepared immediately before measurements. The compositions of the titrand solutions used in the experiments were as follows: (a) 2 mM Ni^2+ (Co^2+ or VO^2+), 5 mM H2ODA, 5 mM HClO4, (b) 2.5 mM H2ODA (for binary systems). The solutions (Vo = 5.0 mL) were potentiometrically titrated with the standardized 0.098 M NaOH solution or with the standardized 0.025 M Bu4NOH solution (in binary systems) in the pH range from 2.5 to 11.0. The titrant was added to the titrand in increments of 0.01 mL, with a pause of 60 s. Each titration was repeated at least three times in order to check the reproducibility of the data. The stability constants of the complexes were determined using the Hyperquad2008 program. The concentration distribution of various complex species existing in the solution as a function of pH was obtained using the HySS program.
The equilibrium constants defined by Eqs. (1) and (2):1 pM+qL+rH=MpLqHr 2 βpqr=MpLqHr/M^pL^qH^r (where M is VO^2+, Co^2+ or Ni^2+, L denotes the oxydiacetate ion, H is the proton and p, q, r are stoichiometric coefficients for the reaction) were refined by least-squares calculations using the Hyperquad2008 (version 5.2.19) computer program. For the oxovanadium(IV) system, the formation of the hydroxo complexes of VO(IV) were taken into account in the calculations of the stability constants. The following formation constants were taken from the literature and were fixed: logβ 10–1 = −5.94, logβ 20–2 = −6.95 and logβ 10–3 = −18. The equilibrium models presented in Table 2 have given the best fitting of the calculated data to the experimental ones.

[2] = system: Human Dermal Fibroblasts adult (HDFa) cell line; assay: Proliferation assay (BrdU ELISA); type: cell-based; settings: 6 day-exposure, 24-h BrdU incorporation
Protocol: The Human Dermal Fibroblasts adult (HDFa) cell line (Cascade Biologics) was used in all experiments. Unless otherwise specified, cells were grown in the Dulbecco’s modified Eagle’s medium (DMEM) supplemented with 10 % fetal bovine serum (FBS) and 1× antibiotic and antimycotic solutions (all purchased from Sigma) and incubated at 310.15 K in the humidified 5 % CO2 atmosphere. The antiproliferative activity of compounds was assessed using the Cell Proliferation ELISA, BrdU (colorimetric) kit (Roche Applied Science). Cells were seeded at a number of 10^3 cells per well of 96-well tissue culture plate and incubated overnight at 310.15 K. The growth medium was substituted with the medium supplemented with tested compounds, and after 5 days of incubation, labelling with 5-bromo-2′-deoxyuridine (BrdU) was performed for another 24 h. Following steps were performed according to the manufacturer’s protocol.

Bacillus subtilis [3] = assay: Broth dilution test (MIC, MBC); type: cell-based; settings: B. subtilis, broth dilution 1–2048 μg/mL
Protocol: (§1) The antimicrobial activity of complex compounds was assessed against Bacillus subtilis, Escherichia coli, Enterococcus faecalis, Pseudomonas aeruginosa, Staphylococcus aureus, Staphylococcus epidermidis (all strains were from the collection of the Department of Molecular Biology, University of Gdańsk). All bacteria were cultured in the Luria-Bertani (LB) broth at 310.15 K in the air with shaking. LB agar plates were prepared by the supplementation of LB broth with the 1.5 % bacteriological agar. Stock solutions of complex compounds were freshly prepared in the LB broth at the concentration of 25 mg/mL. The antimicrobial activity was assessed with the broth dilution method. The LB broth supplemented with the twofold diluted amount of tested compounds (dilution range 1–2048 μg/mL) was inoculated with 10^6 cfu of bacteria cells per well of 96-well plate. Cultures were incubated at 310.15 K with shaking for 18–20 h in the air, and the bacterial growth was estimated by measuring the optical density at 600 nm with the LB broth as a background control. A minimum inhibitory concentration (MIC) was defined as the lowest concentration of the tested compound (in μg/mL) at which there was no visible growth of bacteria compared to the growth observed for the inoculated LB broth without any supplementation. […] The concentration (in μg/mL) at which no colonies were observed was defined as MBC.

Enterococcus faecalis = assay: Broth dilution test (MIC, MBC); type: cell-based; settings: E. faecalis; for MIC: broth dilution 1–2048 μg/mL
Protocol: as §1

Escherichia coli = assay: Broth dilution test (MIC, MBC); type: cell-based; settings: E. coli; for MIC: broth dilution 1–2048 μg/mL
Protocol: as §1

Staphylococcus aureus = assay: Broth dilution test (MIC, MBC); type: cell-based; settings: S. aureus; for MIC: broth dilution 1–2048 μg/mL
Protocol: as §1

Bacillus subtilis [4] = assay: Disc diffusion test; type: cell-based; settings: B. subtilis
Protocol: The antimicrobial activity of complex compounds was assessed against Bacillus subtilis, Escherichia coli, Enterococcus faecalis, Pseudomonas aeruginosa, Staphylococcus aureus, Staphylococcus epidermidis (all strains were from the collection of the Department of Molecular Biology, University of Gdańsk). All bacteria were cultured in the Luria-Bertani (LB) broth at 310.15 K in the air with shaking. LB agar plates were prepared by the supplementation of LB broth with the 1.5 % bacteriological agar. Stock solutions of complex compounds were freshly prepared in the LB broth at the concentration of 25 mg/mL. Aliquots of 0.05 mL of bacterial culture at the optical density at 600 nm of 0.1 (inoculum 5 × 10^6 cells per plate) were spread on LB agar plates. Sterile filter paper discs (of 6 mm diameter) were impregnated with solutions of complex compounds prepared in the deionized water at the following amounts: 0.1, 0.2, 0.5 and 1.0 mg per disc and placed on agar plates. After an overnight incubation at 310.15 K, zones of bacterial growth inhibition were measured. Neomycin at the amount of 0.1 mg/disc was used as a control.

[5] = PT, 298.15 K, aqueous, hydroxo species

SMILES	logβ 110 (species ML), stability constant ([1]; PT, 298.15 K, aqueous)	logβ 11–2 (species MLH−2) [1, 5]	IC25 [2] [µM]	IC50 [2] [µM]	IC75 [2] [µM]	MIC (Bacillus subtilis [3]) [µg/mL]	MIC (Enterococcus faecalis) [µg/mL]	MIC (Escherichia coli) [µg/mL]	MIC (Staphylococcus aureus) [µg/mL]	Zone of growth inhibition (Bacillus subtilis [4]; 500 μg/disc) [mm]	Zone of growth inhibition (Bacillus subtilis [4]; 1000 μg/disc) [mm]	MBC (Staphylococcus aureus) [µg/mL]	bacteriostatic or bactericidal activity (Staphylococcus aureus)	also measured
O.O.O.O.O.O.O.O.O.O=C([O-])COCC(=O)[O-].O=C([O-])COCC(=O)[O-].[Ni+2].[Ni+2] [Ni(ODA), [Ni(ODA)(H2O)3]·1.5H2O]	3.52 (±0.02)	−14.17 (±0.06)	148.65	220	>1000	512	1024	1024	1024	8	8			IC50 ([2]; listed as Ni(II) complex): ~200 µM
O.O.O=C([O-])COCC(=O)[O-].[O]=[V+2] [VO(ODA), [VO(ODA)(H2O)2]]	5.08 (±0.04)	−6.45 (±0.04)	23.41	24.9	26.42	2048	1024	2048	1024		7	2048	bactericidal activity	logβ 22–2 (species M2L2H−2) [1, 5]: 1.65 (±0.15); pH at which hydroxo species predominate over the complex ([1]; species distribution M:L = 1:1 calculated from stability constants): > 5.5; IC50 ([2]; listed as oxovanadium(IV) complex): 25 µM; MBC (Enterococcus faecalis): 1024 µg/mL; bacteriostatic or bactericidal activity (Enterococcus faecalis): bactericidal activity
O.O.O.O=C(O)COCC(=O)O.[Co] [Co(ODA), [Co(ODA)(H2O)2]·H2O]	3.45 (±0.11)	−14.88 (±0.14)	128.90	175	>1000	256	256	512	256	9	11	512	bactericidal activity	IC50 ([2]; listed as Co(II) complex): ~200 µM; MBC (Escherichia coli): 1024 µg/mL; bacteriostatic or bactericidal activity (Escherichia coli): bactericidal activity
